These results are taken from publication PMC9635925, “Biological screening of a unique drug library targeting MRGPRX2” (Frontiers in Immunology, 2022).

The subject of one experiment is LAD2 cells. As to the kind of experiment: β-hexosaminidase release (degranulation) in human mast cell line LAD2. The experiment is classed as cell-based. The method, then: (§1) The human mast cell line LAD2 (Laboratory of Allergic Diseases-2) was obtained from Dean Metcalfe, MD (National Institute of Allergy and Infectious Diseases, National Institutes of Health, Bethesda, MD). […] We included two negative and two positive controls for the validation experiments in LAD2 cells. […] Additionally, vehicle control (without any drugs) was also included as the negative control. Drugs were dissolved in PBS (vehicle) and six concentrations were tested for each drug; the known MRGPRX2 agonist C48/80 (10 μg/mL) and Tween 20 (1%), which is a known mast cell activator via MRGPRX2 independent mechanism, were used as positive controls. Two-way ANOVA with the Sidak multiple comparisons test was used for statistical analysis (n=6).
(§2) We further investigated whether these newly discovered candidate drugs can serve as agonists for MRGPRX2-dependent activation of MCs.

For experiment [1], the target named is T1, MRGPRX2-MUT (MRGPRX2 N62S mutation) (Homo sapiens, UniProt Q96LB1, N62S).
T1 construct: expressed in transfected cells
T1 sequence (Q96LB1 1-330 N62S): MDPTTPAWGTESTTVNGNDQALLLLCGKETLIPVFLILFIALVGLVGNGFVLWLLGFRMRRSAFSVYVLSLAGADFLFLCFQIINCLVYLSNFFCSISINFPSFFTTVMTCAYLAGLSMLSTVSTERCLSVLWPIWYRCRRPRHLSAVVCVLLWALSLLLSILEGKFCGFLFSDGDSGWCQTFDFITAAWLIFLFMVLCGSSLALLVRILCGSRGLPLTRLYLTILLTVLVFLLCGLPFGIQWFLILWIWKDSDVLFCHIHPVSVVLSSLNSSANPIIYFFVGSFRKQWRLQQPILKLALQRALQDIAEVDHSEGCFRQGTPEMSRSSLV
Briefly: Primary HTS, Ca2+ mobilization (fluorescence ratio, B-score) in HEK293-Gα15 cells stably expressing the MRGPRX2 N62S mutation. The settings on record: for B-scores (MUT): 10 μM compound, MRGPRX2-MUT (N62S) cells; for Change of B-scores (%): 10 μM. In kind it is cell-based. On the technique in general: Calcium assays in cells follow changes in intracellular calcium, usually with a dye or a luminescent sensor.

Experiment [2] has as its system MRGPRX2-deficient LAD2 cells. As to the kind of experiment: β-hexosaminidase release in MRGPRX2-deficient LAD2 cells (CRISPR/Cas9). In kind it is cell-based, human. Conditions: two-way ANOVA, P< 0.0001. As for the experimental part: as §1, §2
Experiment [3] concerns the target T2, MRGPRX2-WT (wild-type MRGPRX2 receptor) (Homo sapiens, UniProt Q96LB1).
T2 construct: expressed in transfected cells
T2 sequence (Q96LB1 1-330): T1 sequence (Q96LB1 1-330 N62S) with S62N
As to the kind of experiment: Primary HTS, Ca2+ mobilization (fluorescence ratio, B-score) in HEK293-Gα15 cells stably expressing wild-type MRGPRX2. In kind it is cell-based. Conditions: for B-scores (WT): 10 μM compound.

A further experiment concerns the target T3, MRGPRX2 N62S (Homo sapiens, UniProt Q96LB1, N62S).
T3 construct: expressed in transfected cells
T3 sequence (Q96LB1 1-330 N62S): T1 sequence (Q96LB1 1-330 N62S)
As to the kind of experiment: Calcium response dose-response curves in HEK293-Gα15 cells expressing MRGPRX2 N62S. The experiment is classed as cell-based. The settings on record: P=0.013, unpaired t-test.

Another experiment concerns the target T4, MRGPRX2-WT (Homo sapiens, UniProt Q96LB1).
T4 construct: expressed in transfected cells
T4 sequence (Q96LB1 1-330): T1 sequence (Q96LB1 1-330 N62S) with S62N
Briefly: Calcium response dose-response curves in HEK293-Gα15 cells expressing MRGPRX2-WT. The experiment is classed as cell-based.

In experiment [4] the test system is HEK293-Gα15 cells without MRGPRX2. Briefly: Calcium release in HEK293-Gα15 cells without MRGPRX2 (negative control screening). The settings on record: compared to MRGPRX2-WT or MRGPRX2-N62S cells, data not shown.
Another experiment relates to MRGPRX2. The settings on record: weak agonist; cited from earlier work.
Setting [5] is: MRGPRX2-MUT in comparison to MRGPRX2-WT cells, Supplementary Table 1.
Setting [6] is: MRGPRX2-MUT versus MRGPRX2-WT cells, Supplementary Table 2.

Changes are numbered by the printed parent chain. Where a name gives a salt, the structure may show the parent alone.

The compound `CN(C)CCC(c1ccc(Br)cc1)c1ccccn1` (centres unmarked) [Brompheniramine Maleate] registered a β-hexosaminidase release in the experiment with LAD2 cells (at 500 μM) of 56.43%. Also, the “B-scores (MUT)” value in experiment [1] (Supplementary Table 1), in experiment [1] (Supplementary Table 2) and in experiment [1] (Table 1) was 1.21 throughout. Moreover, the “Change of B-scores (%)” value is recorded as -97.07% in experiment [1] (setting [5]); -97.07% in experiment [1] (MRGPRX2-MUT in comparison to MRGPRX2-WT cells, Table 1); -97.07% in experiment [1] (setting [6]). Besides, the “degranulation (β-hexosaminidase release) in LAD2 cells lacking MRGPRX2” value (from here on “degranulation (β-hexosaminidase release)”) in experiment [2] is “decreased to the level of vehicle controls”. Moreover, the “B-scores (WT)” value in experiment [3] (Supplementary Table 1), in experiment [3] (Supplementary Table 2) and in experiment [3] (Table 1) was 41.41 in each case.
Regarding `COc1cccc2c1C(=O)c1c(O)c3c(c(O)c1C2=O)C[C@@](O)(C(C)=O)C[C@@H]3O[C@H]1C[C@H](N)[C@H](O)[C@H](C)O1` [Daunorubicin Hydrochloride], the “EC50 values comparing MRGPRX2-MUT to MRGPRX2-WT cells” value at MRGPRX2 N62S was “demonstrated the LOF property”. In addition, the “B-scores (MUT)” value in experiment [1] (Supplementary Table 2) is reported as 15.19. Besides, in experiment [1] (setting [6]), the “Change of B-scores (%)” value is on record as 414.49%. For the same compound, the “B-scores (WT)” value in experiment [3] (Supplementary Table 2) is recorded as 2.95.
One may read the EC50 as the concentration at which the effect is half-maximal. `COc1cccc2c1C(=O)c1c(O)c3c(c(O)c1C2=O)C[C@@](O)(C(=O)CO)C[C@@H]3O[C@H]1C[C@H](N)[C@H](O)[C@H](C)O1` [Doxorubicin Hydrochloride]: the EC50 at MRGPRX2-WT was determined as 131 nM.
As for `Cc1ccc(NC(=O)c2ccc(CN3CCN(C)CC3)cc2)cc1Nc1nccc(-c2cccnc2)n1` [Imatinib Mesylate], the β-hexosaminidase release with LAD2 cells (at 125 μM) is 58.42%. Also, the “degranulation (β-hexosaminidase release)” value in experiment [2] is listed as “decreased to the level of vehicle controls”.
On to `CSCC[C@H](NC(=O)[C@H](CC(C)C)NC(=O)CNC(=O)[C@H](Cc1ccccc1)NC(=O)[C@H](Cc1ccccc1)NC(=O)[C@H](CCC(N)=O)NC(=O)[C@H](CCC(N)=O)NC(=O)[C@@H]1CCCN1C(=O)[C@H](CCCCN)NC(=O)[C@@H]1CCCN1C(=O)[C@@H](N)CCCNC(=N)N)C(N)=O` [SP, substance P], for which, in experiment [4], the “calcium response in empty HEK293-Gα15 cells” value was “no increase in calcium response was detected”.
For the compound `CN[C@H](CC(C)C)C(=O)N[C@H]1C(=O)N[C@@H](CC(N)=O)C(=O)N[C@H]2C(=O)N[C@H]3C(=O)N[C@H](C(=O)N[C@H](C(=O)O)c4cc(O)cc(O)c4-c4cc3ccc4O)[C@H](O)c3ccc(c(Cl)c3)Oc3cc2cc(c3O[C@@H]2O[C@H](CO)[C@@H](O)[C@H](O)[C@H]2O[C@H]2C[C@](C)(N)[C@H](O)[C@H](C)O2)Oc2ccc(cc2Cl)[C@H]1O` [vancomycin], the “calculated EC50” value in the experiment on MRGPRX2 was 60 µg/mL. For the same compound, the B-score value in experiment [3] (10 μM) is listed as 16.36.
Take Bacitracin A: in the experiment on LAD2 cells (at 500 μM), the β-hexosaminidase release turned out to be 61.94%. The “B-scores (MUT)” value in experiment [1] (Table 1) is listed as -0.17. In addition, the “degranulation (β-hexosaminidase release)” value in experiment [2] is “decreased to the level of vehicle controls”. Further, the “B-scores (WT)” value in experiment [3] (Supplementary Table 1) and in experiment [3] (Table 1) was 20.22 throughout.
Turning to “Corticotropin A (SYSMEHFRWGKPVGKKRRPVKVYPNGAEDESAEAFPLEF; Corticotropin; UniProt P01189 138-176, looked up) [Adrenocorticotropic hormone (ACTH)]”, the “B-scores (MUT)” value in experiment [1] (Supplementary Table 1) was found to be 15.06. For the same compound, the “Change of B-scores (%)” value in experiment [1] (setting [5]) is -59.51%. Besides, the “B-scores (WT)” value in experiment [3] (Supplementary Table 1) was found to be 37.20.
